According to PMC11604954 (Nature Communications, 2024):

System: PBMCs from A*02:01 COVID-19 convalescent individuals
Format: cell-based, human

## YLQPRTFLL
  ELISpot response frequency: ~ 44%
  ELISpot: HLA-matched individuals responding / tested: 11 out of 25
